Assays:
[1] = Thermal activation in distilled water at pH 8.5 and 50° C.; assay type: physicochemical; settings: pH 8.5, 50° C.
[2] = tested on: microbial control in water; assay: Microbial control in water at slightly alkaline pH; assay type: cell-based
Excerpt: In some embodiments, microbial control in water at slightly alkaline pH was compared between peracetate oxidant, […] bleach, peracetic acid and […] dioxide. Alkaline pH is encountered in a variety of applications where microbial control and sanitization is needed, including pulp and paper processing, cooling towers, water treatment and chill tanks in poultry processing. […].

[3] = Side by side bleaching of Kraft pulp, hand sheet Kappa number, pH and ORP; settings: for Kappa No.: unbleached 30
[4] = gas; cited from earlier work
[5] = 20° C.; cited from earlier work
[6] = 1.13 g/L PAA equiv., initial pH 8.2, 30 min

## CC(=O)OO [PAA, peracetic acid]
[1]
  time of stable peracetic acid and hydrogen peroxide concentrations: about 90 minutes
[1]; peracetate value within 40 minutes
  ORP: around 280 mV vs SHE
[2]
  performance as antimicrobial disinfectant: lowest performance
[3]; 4.0 g/L PAA equiv., initial pH 7.0, 30 min
  Kappa No.: 31
[3]; 4.0 g/L PAA equiv., initial pH 8.9, 30 min
  Kappa No.: 29
[3]; hand sheet tests, initial Kappa number 30
  Kappa unit reduction (bleaching efficiency): only up to one Kappa unit reduction

## chlorine dioxide [ClO2]
[4]
  vapor pressure: greater than 1 atm
[2]
  performance as antimicrobial disinfectant: performed well
[3]; [6]
  Final ORP: 896 mV vs SHE
  Kappa No.: 22
[5]
  solubility limit in water: 0.8 % wt/vol

From patent US11795615B2 (priority 2015, dated 2023)
